According to paper PMC3150614 (Journal of medicinal chemistry, 2011):

Key:
human arginase I (HAI) = target: T1, human arginase I (HAI) (Homo sapiens, UniProt P05089); test: Surface plasmon resonance binding to immobilized HAI; details: based on Kd, racemic mixtures
T1 sequence (P05089 1-322): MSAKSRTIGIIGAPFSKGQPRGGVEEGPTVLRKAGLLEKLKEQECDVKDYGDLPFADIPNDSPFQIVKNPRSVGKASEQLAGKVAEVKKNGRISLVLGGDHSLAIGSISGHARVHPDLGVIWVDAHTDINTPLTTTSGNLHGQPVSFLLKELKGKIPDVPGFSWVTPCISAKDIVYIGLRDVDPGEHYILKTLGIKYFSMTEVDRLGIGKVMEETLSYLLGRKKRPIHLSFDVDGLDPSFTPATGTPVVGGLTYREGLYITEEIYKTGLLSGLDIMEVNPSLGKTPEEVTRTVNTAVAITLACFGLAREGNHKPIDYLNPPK

[1] = target: T2, Plasmodium falciparum arginase (PFA) (Plasmodium falciparum, UniProt Q8I384); format: biochemical; details: racemic mixtures
T2 sequence (Q8I384 1-411): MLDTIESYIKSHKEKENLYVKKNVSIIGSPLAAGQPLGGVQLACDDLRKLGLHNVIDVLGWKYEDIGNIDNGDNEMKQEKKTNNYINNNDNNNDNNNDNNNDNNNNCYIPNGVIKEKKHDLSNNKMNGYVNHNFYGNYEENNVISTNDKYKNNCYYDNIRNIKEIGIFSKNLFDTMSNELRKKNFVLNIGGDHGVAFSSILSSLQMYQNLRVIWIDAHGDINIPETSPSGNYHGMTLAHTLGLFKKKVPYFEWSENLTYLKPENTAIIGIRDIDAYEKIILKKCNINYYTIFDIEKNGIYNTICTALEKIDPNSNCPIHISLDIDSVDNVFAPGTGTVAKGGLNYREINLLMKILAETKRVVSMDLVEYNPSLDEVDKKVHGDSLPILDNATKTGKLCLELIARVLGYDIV

SMILES: NC(CCCCB(O)O)(C(=O)O)C(F)F (stereo not shown) [FABH, 2-Amino-6-borono-2-(difluoromethyl)hexanoic acid]
- fold less tight binding to HAI compared with ABH (human arginase I (HAI)): 1889 fold
- fold weaker inhibitory potency against PFA than ABH, based on Ki [1]: 200 fold

SMILES: CC(N)(CCCCB(O)O)C(=O)O (stereo not shown) [MABH, 2-Amino-6-borono-2-methylhexanoic acid]
- fold less tight binding to HAI compared with ABH (human arginase I (HAI)): 49 fold
- fold weaker inhibitory potency against PFA than ABH, based on Ki [1]: 26 fold
